Test system: C57BL/KsJ-db/db mice
Assay: Blood sugar and triglycerides lowering activity in db/db mice, oral gavage daily for 6 days
Format: in vivo
Conditions: male db/db mice; for Maximum reduction in blood glucose level (%) / Triglyceride lowering (%): oral gavage daily for 6 days
Description: Mutation in colonies of laboratory animals and different sensitivities to dietary regimens have made the development of animal models with non-insulin dependent diabetes associated with obesity and insulin resistance possible. Genetic models such as db/db and ob/ob (See Diabetes, (1982) 31(1) : 1- 6) in mice and fa/fa and zucker rats have been developed by the various laboratories for understanding the pathophysiology of disease and testing the efficacy of new antidiabetic compounds (Diabetes, (1983) 32: 830-838; Annu. Rep. Sankyo Res. Lab. (1994) 46 : 1-57). The homozygous animals, C57 BL/KsJ-db/db mice developed by Jackson Laboratory, US, are obese. hyperglycemic, hyperinsulinemic and insulin resistant (J. Clin. Invest., (1990) 85 : 962-967), whereas heterozygous are lean and normoglycemic. In db/db model, mouse progressively develops insulinopenia with age, a feature commonly observed in late stages of human type II diabetes when blood sugar levels are insufficiently controlled. The state of pancreas and its course vary according to the models. Since this model resembles that of type II diabetes mellitus, the compounds of the present invention were tested for blood sugar and triglycerides lowering activities.
Male C57BL/KsJ-db/db mice of 8 to 14 weeks age, having body weight range of 35 to 60 grams, procured from the Jackson Laboraotory, USA, were used in the experiment. The mice were provided with standard feed (National Institute of Nutrition, Hyderabad, India) and acidified water, ad libitum. The animals having more than 300 mg / dl blood sugar were used for testing. The number of animals in each group was 4.
The random blood sugar and triglyceride levels were measured by collecting blood (100 µl) through orbital sinus, using heparinised capillary in tubes containing EDTA which was centrifuged to obtain plasma. The plasma glucose and triglycerides levels were measured spectrometrically, by glucose oxidase and glycerol-3-PO4 oxidase/peroxidase enzyme (Dr. Reddy's Lab. Diagnostic Division Kits, Hyderabad, India) methods respectively. On 6th day the blood samples were collected one hour after administration of test compounds / vehicle for assessing the biological activity.
Test compounds were suspended on 0.25 % carboxymethyl cellulose and administered to test group at a dose of 1 mg to 100 mg / kg through oral gavage daily for 6 days. The control group received vehicle (dose 10 ml / kg).

Compound: O=C1NC(=O)C(Cc2ccc(OCC3NC(=O)c4ccccc4O3)cc2)S1 (stereo not drawn) [Example 3, 5-[4-1[[4-Oxo-3,4-dihydro-(2H)-1,3-benzoxazine-2-yl]methoxy]phenylmethyl]thiazotidin-2,4-dione]
- Maximum reduction in blood glucose level (%) (dose 10 mg/kg/day): 41%
- Triglyceride lowering (%) (dose 10 mg/kg/day): 48%

Compound: CN1C(=O)c2ccccc2NC1COc1ccc(CC2SC(=O)NC2=O)cc1 (stereo not drawn) [Example 12, 5-[4-[[3-Methyl-4-oxo-1,2,3,4-tetrahydro-2-quinazolinyl]methoxy]phenylmethyl] thiazolidin-2,4-dione]
- Maximum reduction in blood glucose level (%) (dose 3 mg/kg/day): 55%
- Triglyceride lowering (%) (dose 3 mg/kg/day): 35%

Compound: CN1C(=O)c2ccccc2OC1COc1ccc(CC2SC(=O)NC2=O)cc1 (stereo not drawn) [Example 4, 5-[4-[[3-Methyl-4-oxo-3,4-dihydro-(2H)-1,3-benzoxazine-2-yl]methoxy]phenylmethyl] thiazolidin-2,4-dione]
- Maximum reduction in blood glucose level (%) (dose 10 mg/kg/day): 48%
- Triglyceride lowering (%) (dose 10 mg/kg/day): 42%

Compound: CN1C(=O)c2ccccc2N(C)C1COc1ccc(CC2SC(=O)NC2=O)cc1 (stereo not drawn) [Example 11, 5-[4-[[1,3-Dimethyl-4-oxo-1,2,3,4-tetrahydro-2-quinazolinyl]methoxy]phenylmethyl) thiazolidin-2,4-dione]
- Maximum reduction in blood glucose level (%) (dose 1 mg/kg/day): 34%
- Triglyceride lowering (%) (dose 1 mg/kg/day): 28%

Compound: Cc1c(C)c2c(c(C)c1O)CCC(C)(COc1ccc(CC3SC(=O)NC3=O)cc1)O2 (stereo not drawn) [Troglitazone, reference compound]
- reduction in random blood sugar level (100 mg / kg, daily dose, on 6th day): 28%

Reference: patent publication EP1036075B1, “SUBSTITUTED THIAZOLIDINEDIONE AND OXAZOLIDINEDIONE HAVING ANTIDIABETIC, HYPOLIPIDEMIA AND ANTIHYPERTENSIVE PROPERTIES” (Dr. Reddy's Laboratories Ltd., priority 1997, dated 1998)
